Reference: patent US11447503B2, “Pyridine carbamates and their use as GLUN2B receptor modulators” (JANSSEN PHARMACEUTICA NV, priority 2019, dated 2022)

Legend:
[1] = Liver microsomal stability assay (extraction ratio); type: in vitro ADME; conditions: test compound 1 μM; 0.5 mg/mL liver microsomes, NADPH, 37° C.; species not stated (method: mouse, rat, and human)
Description: 5.4. Liver Microsomal Stability Assay (Extraction Ratio)
Microsomal stability studies (see, Chrovian et al, “H-Pyrrolo[3,2-b]pyridine GluN2B-Selective Negative Allosteric Modulators”. ACS Med Chem Lett. 2019 Jan. 10; 10(3):261-266) were conducted on a Biomek® FX Robotic Liquid Handling Workstation (Beckman Coulter, Brea, Calif.), which consists of a 96-channel pipette head, a 12-position workstation deck, and a plate incubator. Test compounds (1 μM) were spiked in a reaction mix consisting of 100 mM potassium phosphate buffer (pH 7.4), 3 mM MgCl2, and 0.5 mg/mL liver microsomes from mouse, rat, and human (BD Gentest). The reaction was brought to 37° C. and initiated by adding NADPH to a final concentration of 1 mM. After mixing on the platedeck, 50 μL aliquots were excised from the reaction plate at 0, 5, 10, 20, 40, and 60 min and quenched with four volumes of acetonitrile spiked with […] of the internal standard phenytoin. Quenched plates were centrifuged at 5700 rpm for 10 min at 4° C., and supernatant was diluted 1:3 in water before LC/MS/MS analysis. The compound half-lives were derived from plots of the In of percent remaining compound over time to determine the intrinsic clearance. The predicted hepatic clearance was derived from the intrinsic clearance value using equations from the well-stirred model (Current Drug Metabolism, 2008, 9, 940-951), where no correction was made plasma protein binding and the blood to plasma concentration ratio was assumed to be one. The extraction ratio (ER) was calculated by dividing the predicted hepatic clearance by species blood flow (Q), where Q is 90, 55, and 21.7 mL/min/kg for mouse, rat and human, respectively.

[2] = molecular target: human GluN1/GluN2B NMDA receptors (Homo sapiens, UniProt Q05586+Q13224); assay: Cell-based calcium flux (FLIPR) assay on cloned human GluN1/GluN2B ion channels expressed in mammalian cells; conditions: standard assay; glutamate ~EC40, 10 μM glycine; stable Tet-On cell line
human GluN1/GluN2B NMDA receptors, sequence (Q13224 27-1484, other chains not shown): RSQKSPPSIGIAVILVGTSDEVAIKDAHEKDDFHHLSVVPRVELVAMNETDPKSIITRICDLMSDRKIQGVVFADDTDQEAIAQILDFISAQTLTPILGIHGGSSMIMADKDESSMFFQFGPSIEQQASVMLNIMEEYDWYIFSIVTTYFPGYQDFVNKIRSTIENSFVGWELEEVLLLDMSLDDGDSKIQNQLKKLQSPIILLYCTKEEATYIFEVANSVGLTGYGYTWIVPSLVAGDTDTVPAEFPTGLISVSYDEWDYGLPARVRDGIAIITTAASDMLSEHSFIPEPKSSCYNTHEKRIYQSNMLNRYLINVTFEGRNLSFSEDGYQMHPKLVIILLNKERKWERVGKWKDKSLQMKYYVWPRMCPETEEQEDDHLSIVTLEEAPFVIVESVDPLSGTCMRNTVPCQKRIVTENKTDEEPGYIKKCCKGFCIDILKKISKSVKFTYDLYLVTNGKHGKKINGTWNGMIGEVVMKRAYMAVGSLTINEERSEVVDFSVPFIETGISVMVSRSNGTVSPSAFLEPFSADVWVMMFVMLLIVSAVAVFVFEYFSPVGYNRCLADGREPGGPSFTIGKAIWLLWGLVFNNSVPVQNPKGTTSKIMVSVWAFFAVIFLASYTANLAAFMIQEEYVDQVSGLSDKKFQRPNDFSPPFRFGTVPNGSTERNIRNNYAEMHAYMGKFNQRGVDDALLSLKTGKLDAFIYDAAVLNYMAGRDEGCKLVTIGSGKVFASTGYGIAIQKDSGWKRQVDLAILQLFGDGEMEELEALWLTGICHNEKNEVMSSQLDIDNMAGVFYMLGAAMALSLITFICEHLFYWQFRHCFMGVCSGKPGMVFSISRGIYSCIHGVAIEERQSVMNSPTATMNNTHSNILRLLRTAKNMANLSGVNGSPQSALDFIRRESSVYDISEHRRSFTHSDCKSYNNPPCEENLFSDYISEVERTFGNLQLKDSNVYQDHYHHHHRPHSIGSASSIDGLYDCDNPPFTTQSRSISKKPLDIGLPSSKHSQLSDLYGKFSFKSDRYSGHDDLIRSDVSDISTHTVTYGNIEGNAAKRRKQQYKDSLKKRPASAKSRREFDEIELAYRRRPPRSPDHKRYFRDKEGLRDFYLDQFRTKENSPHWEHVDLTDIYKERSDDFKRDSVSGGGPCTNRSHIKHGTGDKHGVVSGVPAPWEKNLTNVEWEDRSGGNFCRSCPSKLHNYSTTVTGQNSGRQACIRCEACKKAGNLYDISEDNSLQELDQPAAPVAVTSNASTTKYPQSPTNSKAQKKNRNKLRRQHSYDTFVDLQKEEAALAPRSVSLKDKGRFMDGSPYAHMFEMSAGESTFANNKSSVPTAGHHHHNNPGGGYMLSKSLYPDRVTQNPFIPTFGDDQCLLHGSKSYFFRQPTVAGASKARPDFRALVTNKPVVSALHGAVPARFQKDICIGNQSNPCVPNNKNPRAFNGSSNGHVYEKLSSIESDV
Method in brief: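 Tet-On-induced stable cells expressing human GluN1/GluN2B, Calcium 5 dye. Compounds preincubated 5 min (agonist check), then glutamate at ~EC40 plus 10 μM glycine added for 5 min; Mg2+ and buffer composition differ between standard and HTS formats. FLIPR Tetra fluorescence normalised to control wells; (+)MK-801 as antagonist control.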

SMILES | Extraction Ratio @ 1 μM [1] | IC50 [2]
CC(c1cncc(-c2ccc(F)c(C(F)F)c2)c1)N1CCOC1=O (racemic) [Example 60, (R/S)-3-[1-[5-[3-(difluoromethyl)-4-fluoro-phenyl]-3-pyridyl]ethyl]oxazolidin-2-one] | 0.42 | 785 nM
C[C@H]1CN(Cc2cncc(-c3ccc(F)c(C(F)F)c3)c2)C(=O)O1 (single isomer, unassigned) [Example 27, (S*)-3-[[5-[3-(Difluoromethyl)-4-fluoro-phenyl]-3-pyridyl]methyl]-5-methyl-oxazolidin-2-one] | 0.42 | 14 nM
O=C1OCCCN1Cc1cncc(-c2ccc(F)c(OC(F)F)c2)c1 [Example 1, 3-[[5-[3-(Difluoromethoxy)-4-fluoro-phenyl]-3-pyridyl]methyl]-1,3-oxazinan-2-one] | 0.49 | 10 nM
O=C1OCCCN1Cc1cncc(-c2ccc(Cl)c(OC(F)F)c2)c1 [Example 53, 3-[[5-[4-chloro-3-(difluoromethoxy)phenyl]-3-pyridyl]methyl]-1,3-oxazinan-2-one] | 0.61 | –
CC(F)(F)c1ncc(-c2ccc(F)c(OC(F)F)c2)cc1CN1CC2(CCC2)OC1=O [Example 147, 6-[[2-(1,1-Difluoroethyl)-5-[3-(difluoromethoxy)-4-fluoro-phenyl]-3-pyridyl]methyl]-8-oxa-6-azaspiro[3.4]octan-7-one] | – | 392 nM
C[C@H]1CN(Cc2cc(-c3ccc(F)c(OC(F)F)c3)cnc2C(C)(F)F)C(=O)O1 [Example 148, (5S)-3-[[2-(1,1-Difluoroethyl)-5-[3-(difluoromethoxy)-4-fluoro-phenyl]-3-pyridyl]methyl]-5-methyl-oxazolidin-2-one] | – | 147 nM
C[C@@H]1CN(Cc2cc(-c3ccc(F)c(OC(F)F)c3)cnc2C(C)(F)F)C(=O)O1 [Example 149, (5R)-3-[[2-(1,1-Difluoroethyl)-5-[3-(difluoromethoxy)-4-fluoro-phenyl]-3-pyridyl]methyl]-5-methyl-oxazolidin-2-one] | – | 127 nM
O=C1OCCCN1Cc1cc(-c2ccc(F)c(OC(F)F)c2)cnc1F [Example 151, 3-((5-(3-(Difluoromethoxy)-4-fluorophenyl)-2-fluoropyridin-3-yl)methyl)-1,3-oxazinan-2-one] | – | 11 nM

Next, values leading:

Extraction Ratio @ 1 μM [1] | IC50 [2] | SMILES
0.63 | 11 nM | O=C1OCCN1Cc1cncc(-c2ccc(F)c(C(F)F)c2)c1 [Example 22, 3-[[5-[3-(Difluoromethyl)-4-fluoro-phenyl]-3-pyridyl]methyl]oxazolidin-2-one]
<0.298 | 9 nM | O=C1OCCCN1Cc1cncc(-c2ccc(F)c(C(F)F)c2)c1 [Example 38, 3-[[5-[3-(Difluoromethyl)-4-fluoro-phenyl]-3-pyridyl]methyl]-1,3-oxazinan-2-one]
0.61 | 13 nM | [2H]C([2H])(c1cncc(-c2ccc(F)c(C(F)F)c2)c1)N1CCOC1=O [Example 54, 3-[Dideuterio-[5-[3-(difluoromethyl)-4-fluoro-phenyl]-3-pyridyl]methyl]oxazolidin-2-one]
0.60 | 13 nM | Cc1ncc(-c2ccc(F)c(C(F)F)c2)cc1CN1CCOC1=O [Example 90, 3-[[5-[3-(Difluoromethyl)-4-fluoro-phenyl]-2-methyl-3-pyridyl]methyl] oxazolidin-2-one]
0.55 | 27 nM | Cc1ncc(-c2ccc(F)c(C(F)F)c2)cc1CN1CCCOC1=O [Example 97, 3-[[5-[3-(Difluoromethyl)-4-fluoro-phenyl]-2-methyl-3-pyridyl]methyl]-1,3-oxazinan-2-one]
– | 11 nM | O=C1OCCN1Cc1cc(-c2ccc(F)c(OC(F)F)c2)cnc1F [Example 150, 3-((5-(3-(Difluoromethoxy)-4-fluorophenyl)-2-fluoropyridin-3-yl)methyl)oxazolidin-2-one]
